# Laboratory results taken from article PMC5365060, “Construction of an octosyl acid backbone catalyzed by a radical S-adenosylmethionine enzyme and a phosphatase in the biosynthesis of high-carbon sugar nucleoside antibiotics” (Chemical Science, 2016).
# Target: T1, PolH (Streptomyces aureochromogenes, UniProt J7G018)
# T1 construct: pET28a, N-terminal His6 tag, E. coli; anaerobically purified, reconstituted [4Fe-4S]; motif C225XXXC229XXC232
# Test: HPLC time course of OAP and […]'-deoxyadenosine
# Assay type: biochemical
# Details: 3'-EUMP, sodium dithionite, anaerobic; SAM consumed as co-substrate
# T1 sequence (J7G018 entry or part of it): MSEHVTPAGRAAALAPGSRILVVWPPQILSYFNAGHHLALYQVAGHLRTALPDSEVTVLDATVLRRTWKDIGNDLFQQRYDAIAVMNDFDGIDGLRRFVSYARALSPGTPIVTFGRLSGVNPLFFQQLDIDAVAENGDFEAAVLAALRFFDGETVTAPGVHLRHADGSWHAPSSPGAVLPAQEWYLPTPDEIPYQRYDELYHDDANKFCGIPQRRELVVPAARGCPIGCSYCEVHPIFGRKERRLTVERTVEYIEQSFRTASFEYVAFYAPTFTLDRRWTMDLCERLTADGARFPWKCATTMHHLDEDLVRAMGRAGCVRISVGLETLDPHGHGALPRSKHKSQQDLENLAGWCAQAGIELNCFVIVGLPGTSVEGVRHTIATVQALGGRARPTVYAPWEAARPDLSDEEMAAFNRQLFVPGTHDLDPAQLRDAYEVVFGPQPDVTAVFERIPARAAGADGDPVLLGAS
smiles,measurement,value
C[S+](CC[C@H](N)C(=O)O)C[C@H]1O[C@@H](n2cnc3c(N)ncnc32)[C@H](O)[C@@H]1O (stereo partly shown) [SAM],HPLC time course of OAP and 5'-deoxyadenosine,indicating that SAM was being used as a co-substrate
